Results taken from patent US20090304720A1, “Active Agent-Loaded Nanoparticles Based On Hydrophilic Proteins” (LTS Lohmann Therapie-Systeme AG, priority 2006, published 2009).

Test system: mice
Assay: tail-flick test, analgesia (nociceptive response) after intravenous injection
Format: in vivo, mouse
Details: 7.0 mg/kg loperamide, cut-off ten seconds = 100% MPE
Protocol: The preparations were applied intravenously to mice, at a dosage of 7.0 mg/kg loperamide. Based on an average body weight of a mouse of 20 g, the animals received an application amount of 200 μl of the above-mentioned preparation.
With the aid of this system, the analgesic effects shown in FIG. 1 were achieved after intravenous injection using the above-mentioned active agent loperamide. Analgesia (Nociceptive Response) was detected by the tail-flick test, wherein a hot beam of light is projected onto the tail of the mouse and the time that passes until the mouse flicks away its tail is measured. After ten seconds (=100% MPE) the experiment is discontinued so as not to cause injury to the mouse. Negative MPE values occur in those cases where following administration of the preparation, the mouse flicks away its tail earlier than before the treatment.
As a comparison, a loperamide solution 0.7 mg/ml in 2.6%-vol. ethanol was used.

SMILES: CN(C)C(=O)C(CCN1CCC(O)(c2ccc(Cl)cc2)CC1)(c1ccccc1)c1ccccc1 [loperamide]
- analgesic effect (maximal possible effect, MPE): no analgesic effect
